Assay results reported in patent US9713613B2, “Methods and compositions for the treatment of cancer and related hyperproliferative disorders” (priority 2007, dated 2017).

Legend:
[1] = test system: mice (129Sv background); assay: mice, two-week treatment, normal diet; assay type: in vivo, mouse; conditions: two weeks
Protocol: Food intake was similar between both groups (3.8 and 3.5 g/mouse/day for treated and control mice, respectively).
In the second protocol, two groups of male mice (n=5) were treated daily for two weeks with either 30 mg/kg fatostatin A or 10% DMSO in PBS. Food intake and body weight were measured daily. At the end of the experiments, the mice were briefly fasted for 4-5 hrs, and their blood was withdrawn for determination of serum constituents. The mice were then sacrificed, and their livers were quickly removed and ground to powder in liquid nitrogen. The powdered tissues were suspended in 10 ml of PBS containing 0.1 mM PMSF, 5 mM benzamidine, and 5 mg/mL protease inhibitor cocktail (Roche), homogenized using Polytron (3×30 Sec, at a high speed), and sonicated briefly to degrade DNA. The extracts were clarified by centrifugation at 16,000×g for 20 min. The samples were then subjected to western blot analysis using commercially available antibodies against FAS and SREBP-1. FAS and ACC activities were determined as described earlier (Mao et al., 2006).

[2] = test system: DU145 cells; assay: Oligonucleotide microarray analysis (Affymetrix) of treated DU145 cells; assay type: cell-based, human; set-up: dose or concentration left out as unconfirmed; conditions: DU145, 6 hrs
Protocol: Gene expression profile comparison of the drug-treated and untreated cells might reveal specific molecular pathways affected by fatostatin A. DU145 cells were treated with fatostatin A or DMSO alone, and extracted mRNA samples were analyzed by Affimetrix DNA microarrays mapping 33,000 genes (Table 1).
(§1) DU145 prostate cancer cells were treated with […] of fatostatin A or DMSO alone in the presence of 1 μg/mL of IGF1 for 6 hrs in a serum free medium, total RNA was extracted in a TRI reagent (Molecular Research Center) and further isolated by RNeasy Mini Kit (Qiagen). Purified mRNA was analyzed in Baylor College of Medicine Microarray Core Facility by Affymetrix Human Genome U133 Plus 2.0 Array consisting of almost 45,000 probe sets representing more than 39,000 transcripts derived from approximately 33,000 well-substantiated human genes (Affymetrix, Inc.).
As described herein, fatostatin inhibits the insulin-induced adipogenesis of 3T3-L1 cells and the serum-independent growth of DU145 cells (Choi et al., 2003). Gene expression profiles of drug-treated and untreated cells were compared to gain information about specific molecular pathways affected by fatostatin. DU145 cells were treated with fatostatin or DMSO alone, and the extracted mRNA samples were analyzed by Affymetrix DNA microarrays mapping 33,000 genes. Of those genes (all of which are available at the National Center for Biotechnology Information's GenBank database on the world wide web), transcription levels of 63 genes decreased at least 35% in response to fatostatin treatment (Table 5). Thirty-four of the affected genes were directly associated with fat or sterol synthesis, such as genes encoding biosynthetic enzymes, and 18 of the affected genes have been reported to be controlled by SREBPs (Horton et al., 2003). Downregulation of the affected SREBP-responsive genes was confirmed by RT-PCR experiments.
as §1, with “Oligonucleotide microarray analysis. DU145” for “DU145”, “fatostatin” for “fatostatin A”

## CCCc1cc(-c2nc(-c3ccc(C)cc3)cs2)ccn1 [Compound 1, 2-propyl-4-(4-p-tolylthiazol-2-yl)pyridine]
[1]; 30 mg/kg daily, normal diet, control no change
  loss of body weight: 10%
[1]; 30 mg/kg daily
  decrease of FAS activity and its protein level in liver: about 30%
[1]; control 3.5
  food intake: 3.8 g/mouse/day
[2]; :AA872727
  transcription level (fold), famesyl-diphosphate farnesyltransferase: 0.5359
[2]; A1189359
  transcription level (fold), mevalonate (diphospho) decarboxylase: 0.3299
[2]; AB032261
  transcription level (fold), stearoyl-CoA desaturase (delta-9-desaturase): 0.5743
[2]; AF096304
  transcription level (fold), Homo sapiens putative sterol reductanse SR-1 (TM7SF2): 0.6156
[2]; AF098865
  transcription level (fold), squalene epoxidase: 0.5
[2]; AF167438
  Decreased fold, Homo sapiens androgen-regulated short-chain dehydrogenaseneductase 1: 0.6598
  transcription level (fold), Homo sapiens androgen-regulated short-chain dehydrogenasereductase 1 (ARSDR1): 0.6598
[2]; AI670819
  transcription level (fold), Cullin 4B: 0.7071
[2]; AI861942
  transcription level (fold), low density lipoprotein receptor (familial hypercholesterolemia): 0.5743
[2]; AI971281
  transcription level (fold), ATP citrate lyase: 0.5743
[2]; AK000162
  Decreased fold, acetyl-CoA synthetase: 0.5359
  transcription level (fold), acetyl-CoA synthetase: 0.5359
[2]; AL049699
  transcription level (fold), malic enzyme 1, NADP(+)-dependent, cytosolic: 0.7071
[2]; AL518627
  transcription level (fold), 3-hydroxy-3-methylglutaryl-Coenzyme A reductase: 0.5
[2]; AL565516
  transcription level (fold), human glucose transporter pseudogene: 0.7071
[2]; AL565749
  transcription level (fold), Tubulin, beta 4: 0.6598
[2]; AL575074
  transcription level (fold), tubulin, alpha 1 (testis specific): 0.4665
[2]; AU144855
  transcription level (fold), cytochrome P450, subfamily I (dioxin-inducible), polypeptide 1: 0.5
[2]; AW084510
  transcription level (fold), lanosterol synthase (2,3-oxidosqualene-lanosterol cyclase): 0.5743
[2]; AW235051
  transcription level (fold), cytochrome b5 outer mitochondrial membrane precursor: 0.5743
[2]; B3855983
  transcription level (fold), acetyl-Coenzyme A carboxylase alpha: 0.5743
[2]; BC000245
  transcription level (fold), NAD(P) dependent steroid dehydrogenase-like; H105e3: 0.4665
[2]; BC000408
  transcription level (fold), acetyl-Coenzyme A acetyltransferase 2 (acetoacetyl Coenzyme A thiolase): 0.5743
[2]; BC000408.1
  Decreased fold, acetyl-Coenzyme A acetyltransferase 2: 0.5743
[2]; BC002654
  transcription level (fold), Homo sapiens, similar to tubulin, beta4: 0.6598
[2]; BC005247
  transcription level (fold), isopentenyl-diphosphate delta isomerase: 0.4665
[2]; BC005838
  transcription level (fold), Homo sapiens, tubulin, beta5: 0.6598
[2]; BE300521
  transcription level (fold), insulin induced gene 1: 0.3299
[2]; BF978872
  transcription level (fold), dihydrolipoamide S-acetyltransferase: 0.6598
[2]; BG252490
  transcription level (fold), DNAJ (Hsp40) homolog, subfamily B, member 4: 0.7071
[2]; D63807.1
  Decreased fold, lanosterol synthase: 0.6156
  transcription level (fold), lanosterol synthase (2,3-oxidosqualene-lanosterol cyclase): 0.6156
[2]; D80010.1
  transcription level (fold), lipin 1: 0.5
[2]; D85181.1
  Decreased fold, sterol-05-desaturase: 0.5
  transcription level (fold), sterol-C5-desaturase (fungal ERG3, delta-5-desaturase)-like: 0.5
[2]; D89053.1
  transcription level (fold), Fatty-acid-Coenzyme A ligase, long-chain 3: 0.7071
[2]; L32662.1
  transcription level (fold), prostaglandin E2 receptor: 0.5
[2]; NM000859.1
  Decreased fold, 3-hydroxy-3-methylglutaryl-Coenzyme A reductase (HMG CoA R): 0.5
[2]; NM 0002130.1
  Decreased fold, 3-hydroxy-3-methylglutaryl-Coenzyme A synthase 1 (HMG CoA S): 0.3536
[2]; NM002461.1
  Decreased fold, mevalonate decarboxylase (MVD): 0.3299
[2]; NM 003129.2
  Decreased fold, squalene epoxidase: 0.5
[2]; NM 005542.1
  Decreased fold, Insulin induced gene 1 (INSIG1): 0.3299
[2]; NM005931.1
  Decreased fold, fatty acid desaturase 1: 0.6598
[2]; NM006579.1
  Decreased fold, emopamil-bindingprotein (sterol isomerase): 0.6156
[2]; NM0019312
  Decreased fold, dihydrolipoamide S-acetyltransferase: 0.6598
[2]; NM_00010
  transcription level (fold), cytochrome P450, subfamily I (dioxin-inducible), polypeptide 1: 0.3299
[2]; NM_00043
  transcription level (fold), mevalonate kinase (mevalonic aciduria): 0.5
[2]; NM_00047
  transcription level (fold), nuclear receptor subfamily O, group B, member 1: 0.5359
[2]; NM_00052
  transcription level (fold), low density lipoprotein receptor (familial hypercholesterolemia): 0.6156
[2]; NM_00078
  transcription level (fold), cytochrome P450, 51 (lanosterol 14-alpha-demthylase): 0.5359
[2]; NM_00085
  transcription level (fold), 3-hydroxy-3-methylglutaryl-Coenzyme A reductase: 0.4665
[2]; NM_00109
  transcription level (fold), ATP citrate lyase: 0.7071
[2]; NM_00136
  transcription level (fold), dehydrocholesterol reductase: 0.5743
[2]; NM_00200, Hs.284244
  transcription level (fold), fibroblast growth factor 2 (basic): 0.5
[2]; NM_00200, Hs.77393
  transcription level (fold), farnesyl diphosphate synthase: 0.6598
[2]; NM_00213
  transcription level (fold), 3-hydroxy-3-methylglutaryl-Coenzyme a synthase 1 (soluble): 0.3536
[2]; NM_00243
  transcription level (fold), meningioma (disrupted in balanced translocation) 1: 0.6156
[2]; NM_00270
  transcription level (fold), Homo sapiens periplakin (PPL): 0.6156
[2]; NM_00352
  transcription level (fold), H2B histone family, member Q: 0.5
[2]; NM_00367
  transcription level (fold), basic heliz-loop-helix domain containing, class B, 2: 0.5743
[2]; NM_00381
  transcription level (fold), tumor necrosis factor (ligand) superfamily, member9: 0.5743
[2]; NM_000431.1
  Decreased fold, mevalonate kinase (MVK): 0.5
[2]; NM_000527.2
  Decreased fold, low density lipoprotein receptor (LDLR): 0.5743
[2]; NM_00547
  transcription level (fold), UDP-N-acetylglucosamine-2-epimerase-N-acetrylmannosamine kinase: 0.5743
[2]; NM_00589
  transcription level (fold), Isocitrate dehydrogenase 1 (NADP+), soluble: 0.7071
[2]; NM_00593
  transcription level (fold), fatty acid desaturase 1: 0.6598
[2]; NM_00603
  transcription level (fold), lipase, endothelial: 0.5359
[2]; NM_00654
  transcription level (fold), IGF-II mRNA-binding protein 3: 0.4665
[2]; NM_00657
  transcription level (fold), emopamil-binding protein (sterol isomerase): 0.6156
[2]; NM_00662
  transcription level (fold), serum-inducible kinase: 0.5743
[2]; NM_000664.1
  Decreased fold, acetyl-Coenzyme A carboxylase alpha: 0.5743
[2]; NM_001096.1
  Decreased fold, ATP citrate lyase: 0.5743
[2]; NM_01637
  transcription level (fold), hydroxysteroid (17-beta) dehydrogenase 7: 0.4665
[2]; NM_002004.1
  Decreased fold, farnesyl pyrophosphate syntlietase: 0.6598
[2]; NM_004457.2
  Decreased fold, fatty-acid-Coenzyme A ligase long chain 3: 0.7071
[2]; NM_004462.1
  Decreased fold, famesyl-diphosphate famesyltransferase 1: 0.5359
[2]; NM_005063.1
  Decreased fold, stearoyl-CoA desaturase (SCD): 0.5743
[2]; NM_014676
  transcription level (fold), seladin-1: 0.6598
[2]; NM_016371.1
  Decreased fold, hydroxysteroid (17-beta) dehydrogenase 7: 0.4665
[2]; NM_022977.1
  Decreased fold, fatty-acid-Coenzyme A ligase long chain 4: 0.7071
[2]; S70123.1
  transcription level (fold), low density lipoprotein receptor (familial hypercholesterolemia): 0.7071
[2]; U18197.1
  transcription level (fold), ATP citrate lyase: 0.5743
[2]; U40053
  transcription level (fold), cytochrome P450, 51 (lanosterol 14-alpha-demethylase): 0.4665
[2]; U59479.1
  transcription level (fold), pinin, desmosome associated protein: 0.5359
